Results: US20220280594A1, “APPLICATION OF POLYPEPTIDE OR DERIVATIVE THEREOF” (CHENGDU HUITAI BIOMEDICINE CO., LTD., priority 2019, published 2022)
Ends that are not written are not given here. PEG = not defined here

How the values were obtained:
[1] = system: human breast cancer cells (MCF-7); test: scratch assay, migration of MCF-7 cells; format: cell-based; details: MCF-7, 10 μM, 48 hours; control group 30.97 ± 1.79
In short: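 MCF-7 monolayers scratched, then cultured 48 hours in 2% FBS medium with test peptide at 10 μM versus PBS control, triplicate wells. Migration rate (%) = (original − current scratch width)/original width × 100, measured from images.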

[2] = system: human pharyngeal squamous-cell carcinoma cells (Fadu); test: scratch assay, migration of Fadu cells; format: cell-based; details: 10 μM, 48 hours, control group 28.76 ± 4.08
In short: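 Confluent Fadu monolayers scratched, then cultured 48 h with 10 μM polypeptide in medium with 2% FBS; PBS control, triplicate wells. Migration rate (%) = (original − current scratch width)/original width × 100, from ≥3 images per well.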

[3] = system: human liver cancer cells (HepG2); test: scratch assay, migration of HepG2 cells; format: cell-based; details: HepG2, 10 μM, 48 hours; control group 71.01 ± 6.63
In short: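 HepG2 monolayers scratched, then cultured 48 h in 2% FBS medium with test polypeptides at 10 μM versus PBS control, triplicate wells. Migration rate (%) computed from original versus current scratch width in images.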

[4] = system: human prostate cancer cells (22RV1); test: scratch assay, migration of 22RV1 cells; format: cell-based; details: 22RV1, 10 μM, 48 hours; control group 25.41 ± 5.01
In short: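 22RV1 monolayers (seeded 1-2×10^5 cells/well) were scratched, washed, then given 2% FBS medium with 10 μM polypeptide or PBS, triplicate wells, for 48 h. Migration rate (%) = (original − current scratch width)/original width ×100, from ≥3 images per well.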

[5] = system: human melanoma cells (A375); test: scratch assay, migration of A375 cells; format: cell-based; details: A375, 10 μM, 48 hours; control group 44.03 ± 6.21
In short: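 Monolayers scratched, washed with PBS and cultured 48 hours in 2% FBS medium with polypeptides N1-N54 at 10 μM or PBS control, three wells per group. Migration rate (%) = (original − current scratch width)/original width×100, from imaged scratch widths.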

[6] = system: human lung cancer cells (95D); test: scratch assay, migration of 95D cells; format: cell-based; details: 10 μM, 48 hours, control group 55.3 ± 3.19
In short: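 Confluent 95D monolayers were scratched, washed with PBS and cultured 48 h in 2% FBS medium containing peptide (10 μM) or PBS control, in triplicate wells. Scratch width was measured on images; migration rate (%) = (original width − current width)/original width × 100.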

[7] = system: human lung squamous carcinoma cells (NCI-H226); test: scratch assay, migration of NCI-H226 cells; format: cell-based; details: NCI-H226, 10 μM, 48 hours; control group 65.31 ± 3.19
In short: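 A straight scratch was made in confluent NCI-H226 monolayers (1-2×10^5 cells/well). Cells were then kept 48 h in 2% FBS medium with 10 μM polypeptide or PBS control, triplicate wells. Migration rate (%) = (original − current scratch width)/original width ×100, from imaged scratch widths.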

[8] = system: human colon cancer cells (HCT-116); test: scratch assay, migration of HCT-116 cells; format: cell-based; details: HCT-116, 10 μM, 48 hours; control group 47.78 ± 6.07
In short: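 Confluent HCT-116 monolayers were scratched, washed and cultured 48 h in 2% FBS medium with peptide at 10 μM versus PBS control, triplicate wells. Migration rate (%) = (original minus current scratch width)/original width × 100, from at least 3 images per well.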

[9] = system: human lung cancer cells (A549) subcutaneous xenograft; test: lung cancer subcutaneous xenograft animal model, intravenous injection; format: in vivo, mice (BALB/c-nu/nu); details: intravenous 60 mg/kg once every other day, 20 days; for Weight of tumor (g) (mean ± SD): control 2.53 ± 0.17; for Volume of tumor (mm^3) (mean ± SD): control 3373.26 ± 581.44
In short: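 Female BALB/c-nu/nu mice (4-6 weeks) inoculated subcutaneously with ~2×10^6 A549 cells; grouped once tumours exceeded 100 mm^3. Peptides given intravenously at 60 mg/kg for 20 days versus model control. Tumour weight and volume measured at dissection; body weight recorded every other day.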

[10] = system: human non-small cell lung cancer cells (A549); test: scratch assay, migration of A549 cells; format: cell-based; details: A549, 10 μM, 48 hours; control group 75.31 ± 8.19
In short: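 Confluent A549 monolayers in 24-well plates were scratched, washed with PBS, then cultured 48 h in 2% FBS medium with peptide at 10 μM or PBS control, triplicate wells. Scratch width measured from images; migration rate (%) = (original − current width)/original width × 100.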

[11] = system: human breast cancer cells (MDA-MB-231); test: scratch assay, migration of MDA-MB-231 cells; format: cell-based; details: MDA-MB-231, 10 μM, 48 hours; control group 36.19 ± 5.15
In short: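 MDA-MB-231 monolayers (1-2×10^5 cells/well) were scratched, then kept 48 h in medium with 2% FBS containing polypeptide at 10 μM, with a PBS control, in triplicate wells. Migration rate (%) was taken from scratch width: (original − current)/original ×100.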

N41: SEQ ID NO: 1 with addition of two amino acids at the amino terminal, deletion of position 18, PEG at the carboxyl terminal (FRYRVRFLAKENVTQDAED-{PEG}; reading uncertain)
Migration rate (%) (mean ± SD, P) [1]: 5.19 ± 2.94,*** %
Migration rate (%) (mean ± SD, P) [2]: 12.00 ± 4.73,** %
Migration rate (%) (mean ± SD, P) [3]: 25.59 ± 6.26,*** %
Migration rate (%) (mean ± SD, P) [4]: 7.83 ± 1.84,** %
Migration rate (%) (mean ± SD, P) [5]: 10.01 ± 2.07,*** %
Migration rate (%) (mean ± SD, P) [6]: 32.62 ± 3.79,** %
Migration rate (%) (mean ± SD, P) [7]: 15.30 ± 8.69,*** %
Migration rate (%) (mean ± SD, P) [8]: 5.78 ± 2.76,*** %
Weight of tumor (g) (mean ± SD) [9]: 0.84 ± 0.34 g
Volume of tumor (mm^3) (mean ± SD) [9]: 1075.33 ± 350.78 mm^3
Migration rate (%) (mean ± SD, P) [10]: 56.03 ± 3.75,* %
Migration rate (%) (mean ± SD, P) [11]: 14.75 ± 4.28,** %

N47: SEQ ID NO: 1 with N18R, deletion of positions 1-2, one amino acid added and PEG at the carboxyl terminal (VRFLAKENVTQDAEDRC-{PEG}; reading uncertain)
Migration rate (%) (mean ± SD, P) [1]: 18.41 ± 2.35,* %
Migration rate (%) (mean ± SD, P) [2]: 10.27 ± 4.61,*** %
Migration rate (%) (mean ± SD, P) [3]: 54.67 ± 7.02,* %
Migration rate (%) (mean ± SD, P) [4]: 5.92 ± 2.53,** %
Migration rate (%) (mean ± SD, P) [5]: 8.82 ± 2.49,*** %
Migration rate (%) (mean ± SD, P) [6]: 23.86 ± 3.61,*** %
Migration rate (%) (mean ± SD, P) [7]: 53.86 ± 3.61,* %
Migration rate (%) (mean ± SD, P) [8]: 18.92 ± 2.11,** %
Weight of tumor (g) (mean ± SD) [9]: 0.75 ± 0.39 g
Volume of tumor (mm^3) (mean ± SD) [9]: 1748.82 ± 508.08 mm^3
Migration rate (%) (mean ± SD, P) [10]: 54.66 ± 4.73,* %
Migration rate (%) (mean ± SD, P) [11]: 21.82 ± 4.11,* %

N25: SEQ ID NO: 1 with substitution N18R and addition of two amino acids at the carboxyl terminal (YRVRFLAKENVTQDAEDRCT)
Migration rate (%) (mean ± SD, P) [1]: 9.16 ± 2.51,** %
Migration rate (%) (mean ± SD, P) [2]: 9.89 ± 2.47,*** %
Migration rate (%) (mean ± SD, P) [3]: 14.22 ± 7.10,*** %
Migration rate (%) (mean ± SD, P) [4]: 13.02 ± 2.27,* %
Migration rate (%) (mean ± SD, P) [5]: 17.67 ± 2.41,** %
Migration rate (%) (mean ± SD, P) [6]: 40.70 ± 3.25,** %
Migration rate (%) (mean ± SD, P) [7]: 15.03 ± 8.16,*** %
Migration rate (%) (mean ± SD, P) [8]: 18.70 ± 2.39,** %
Weight of tumor (g) (mean ± SD) [9]: 0.69 ± 0.21 g
Volume of tumor (mm^3) (mean ± SD) [9]: 1169.92 ± 572.47 mm^3
Migration rate (%) (mean ± SD, P) [10]: 34.66 ± 7.73,** %
Migration rate (%) (mean ± SD, P) [11]: 12.93 ± 4.38,** %

N17: SEQ ID NO: 1 with addition of two amino acids to the carboxyl terminal (YRVRFLAKENVTQDAEDNCT)
Migration rate (%) (mean ± SD, P) [1]: 11.47 ± 4.24,** %
Migration rate (%) (mean ± SD, P) [2]: 8.78 ± 2.34,*** %
Migration rate (%) (mean ± SD, P) [3]: 43.42 ± 3.16,** %
Migration rate (%) (mean ± SD, P) [4]: 4.61 ± 1.64,** %
Migration rate (%) (mean ± SD, P) [5]: 14.35 ± 2.52,*** %
Migration rate (%) (mean ± SD, P) [6]: 18.31 ± 8.26,** %
Migration rate (%) (mean ± SD, P) [7]: 43.38 ± 4.83,** %
Migration rate (%) (mean ± SD, P) [8]: 23.09 ± 2.41,*** %
Weight of tumor (g) (mean ± SD) [9]: 0.9 ± 0.16 g
Volume of tumor (mm^3) (mean ± SD) [9]: 1301.58 ± 329.64 mm^3
Migration rate (%) (mean ± SD, P) [10]: 18.31 ± 9.26,** %
Migration rate (%) (mean ± SD, P) [11]: 12.04 ± 4.13,** %

N43: SEQ ID NO: 1 with addition of one amino acid at the amino terminal, deletion of position 18, PEG at the carboxyl terminal (RYRVRFLAKENVTQDAED-{PEG}; reading uncertain)
Migration rate (%) (mean ± SD, P) [1]: 7.83 ± 3.42,** %
Migration rate (%) (mean ± SD, P) [2]: 10.04 ± 2.50,** %
Migration rate (%) (mean ± SD, P) [3]: 26.54 ± 7.89,** %
Migration rate (%) (mean ± SD, P) [4]: 6.57 ± 1.35,** %
Migration rate (%) (mean ± SD, P) [5]: 11.22 ± 1.74,*** %
Migration rate (%) (mean ± SD, P) [6]: 30.38 ± 4.71,** %
Migration rate (%) (mean ± SD, P) [7]: 16.38 ± 7.71,*** %
Migration rate (%) (mean ± SD, P) [8]: 4.56 ± 1.52,*** %
Weight of tumor (g) (mean ± SD) [9]: 0.85 ± 0.14 g
Volume of tumor (mm^3) (mean ± SD) [9]: 1218.7 ± 190.78 mm^3
Migration rate (%) (mean ± SD, P) [10]: 57.74 ± 5.39,* %
Migration rate (%) (mean ± SD, P) [11]: 12.19 ± 5.70,** %

N15: SEQ ID NO: 1 with substitution N18R and addition of one amino acid to the carboxyl terminal (YRVRFLAKENVTQDAEDRC)
Migration rate (%) (mean ± SD, P) [1]: 11.57 ± 2.10,** %
Migration rate (%) (mean ± SD, P) [2]: 12.45 ± 4.28,** %
Migration rate (%) (mean ± SD, P) [3]: 53.20 ± 5.58,* %
Migration rate (%) (mean ± SD, P) [4]: 8.36 ± 2.03,** %
Migration rate (%) (mean ± SD, P) [5]: 10.62 ± 2.53,*** %
Migration rate (%) (mean ± SD, P) [6]: 24.09 ± 6.40,** %
Migration rate (%) (mean ± SD, P) [7]: 35.05 ± 3.95,** %
Migration rate (%) (mean ± SD, P) [8]: 10.41 ± 2.99,*** %
Weight of tumor (g) (mean ± SD) [9]: 0.95 ± 0.18 g
Volume of tumor (mm^3) (mean ± SD) [9]: 1307.48 ± 416.26 mm^3
Migration rate (%) (mean ± SD, P) [10]: 14.98 ± 9.09,** %
Migration rate (%) (mean ± SD, P) [11]: 13.03 ± 5.72,** %

N5: SEQ ID NO: 1 with addition of one amino acid at the carboxyl terminal and deletion of positions 1-3 (RFLAKENVTQDAEDNC)
Migration rate (%) (mean ± SD, P) [1]: 14.50 ± 2.66,** %
Migration rate (%) (mean ± SD, P) [2]: 9.07 ± 2.08,*** %
Migration rate (%) (mean ± SD, P) [3]: 19.84 ± 5.04,*** %
Migration rate (%) (mean ± SD, P) [4]: 10.37 ± 3.53,* %
Migration rate (%) (mean ± SD, P) [5]: 9.82 ± 3.84,*** %
Migration rate (%) (mean ± SD, P) [6]: 28.27 ± 5.00,** %
Migration rate (%) (mean ± SD, P) [7]: 10.65 ± 9.94,*** %
Migration rate (%) (mean ± SD, P) [8]: 12.75 ± 2.82,*** %
Weight of tumor (g) (mean ± SD) [9]: 0.71 ± 0.12 g
Volume of tumor (mm^3) (mean ± SD) [9]: 1353.09 ± 422.65 mm^3
Migration rate (%) (mean ± SD, P) [10]: 46.66 ± 5.92,** %
Migration rate (%) (mean ± SD, P) [11]: 22.13 ± 3.22,* %

N7: SEQ ID NO: 1 with addition of one amino acid at the carboxyl terminal and substitution A15R (YRVRFLAKENVTQDREDNC)
Migration rate (%) (mean ± SD, P) [1]: 12.59 ± 3.23,** %
Migration rate (%) (mean ± SD, P) [2]: 13.12 ± 3.56,** %
Migration rate (%) (mean ± SD, P) [3]: 11.54 ± 9.00,*** %
Migration rate (%) (mean ± SD, P) [4]: 6.54 ± 2.24,** %
Migration rate (%) (mean ± SD, P) [5]: 8.95 ± 1.27,*** %
Migration rate (%) (mean ± SD, P) [6]: 35.72 ± 3.68,** %
Migration rate (%) (mean ± SD, P) [7]: 18.83 ± 4.53,*** %
Migration rate (%) (mean ± SD, P) [8]: 20.09 ± 2.41,** %
Weight of tumor (g) (mean ± SD) [9]: 0.81 ± 0.15 g
Volume of tumor (mm^3) (mean ± SD) [9]: 1189.39 ± 200.83 mm^3
Migration rate (%) (mean ± SD, P) [10]: 48.64 ± 3.10,** %
Migration rate (%) (mean ± SD, P) [11]: 21.04 ± 2.46,* %
